Test results published in US20120035069A1, “PROGNOSIS OF BREAST CANCER PATIENTS BY MONITORING THE EXPRESSION OF TWO GENES” (priority 2009, published 2012).

Legend:
[1] = tested on: MDA-MB-231 cells; test: Matrigel invasion (evasion) assay; type: cell-based, human; conditions: SB431542 5 μM; control MDA-MB-231 cells embedded in a drop of Matrigel
Description: (C) Assay for invasive activity of MDA-MB-231 cells embedded in a drop of matrigel. Panels show pictures of the same field at different time points. Dotted is lines highlight the edges of the drop. Only control cells are able to evade from the Matrigel® (arrows). This process is dependent on TGFβ signaling as it is blocked by treatment with the TGFβR1 inhibitor SB431542 (5 μM). MDA shp53 cells are impaired in matrix degradation and evasion.
For matrigel invasion assay shown in FIG. 2C, MDA-MB-231 and derivative cell lines were resuspended in drops ([…]) of Matrigel Growth Factor Reduced (BD Biosciences), diluted 1:2 in DMEM/F12.

[2] = tested on: MDA-MB-231 cells; test: Transwell migration assay; type: cell-based, human; conditions: control MDA-MB-231 cells; TGFβ1 5 ng/ml
Description: Transwell migration assay were performed in 24 well PET inserts (Falcon […] pore size) for migration assays. For MDA-MB-231, cells were plated in 10 cm dishes, transfected with siRNA and, after 8 hours, serum starved overnight. Then, 50000 or 100000 cells were plated in transwell inserts (at least 3 replicas for each sample) and either left untreated or treated with TGFβ1 (5 ng/ml). For H1299, cells is were plated in the transwell in 10% serum but then changed to 0.2% serum. For both cell lines, cells in the upper part of the transwells were removed with a cotton swab; migrated cells were fixed in PFA 4% and stained with Crystal Violet 0.5%. Filters were photographed and the total number of cells counted. Every experiment was repeated at least 3 times independently.

## NC(=O)c1ccc(-c2nc(-c3ccc4c(c3)OCO4)c(-c3ccccn3)[nH]2)cc1 [SB431542]
[1]
  evasion of cells from the Matrigel drop (TGFβ-dependent invasive activity): blocked

## TGFβ: TGFβ provided from Peprotech, used to treat cells
[2]
  migration through transwell in response to TGFβ: potent promigratory response
